Experimental findings from ChEMBL document CHEMBL5532655, “Discovery of (R)-4-(8-methoxy-2-methyl-1-(1-phenylethy)-1H-imidazo[4,5-c]quinnolin-7-yl)-3,5-dimethylisoxazole as a potent and selective BET inhibitor for treatment of acute myeloid leukemia (AML) guided by FEP calculation” (Eur J Med Chem, 2024) are described below.

Test [1] deals with CREB-binding protein (Homo sapiens) (UniProt Q92793). To be noted: time 30.0 min.
Test [2] addresses Bromodomain adjacent to zinc finger domain protein 2B (Homo sapiens) (UniProt Q9UIF8). Kind of test: Binding affinity to BAZ2B (unknown origin) using biotinylated histone peptide H4 as substrate at 1 uM incubated for 2 hrs by AlphaScreen assay relative to control.
Another test is filed under the species Homo sapiens. To be noted: time 30.0 min.
The next test relates to MOLM-13. Kind of test: cells. As to conditions: Homo sapiens, MOLM-13, 48 h.
In test [3] the target is CREB-binding protein (Homo sapiens) (UniProt Q92793). Kind of test: Binding affinity to CREBBP (unknown origin) using biotinylated histone peptide H4 as substrate at 1 uM incubated for 2 hrs by AlphaScreen assay relative to control.
In test [4] the target is Bromodomain testis-specific protein (Homo sapiens) (UniProt Q58F21). Kind of test: Binding affinity to BRDT BD1 (unknown origin) using biotinylated histone peptide H4 as substrate at 1 uM incubated for 2 hrs by AlphaScreen assay relative to control. In general terms: In Alpha technology, singlet oxygen from a donor bead excites a nearby acceptor bead.
Test [5] concerns the target SWI/SNF-related matrix-associated actin-dependent regulator of chromatin subfamily A member 4 (Homo sapiens) (UniProt P51532). To be noted: time 30.0 min.
Test [6] concerns the target Transcription initiation factor TFIID subunit 1 (Homo sapiens) (UniProt P21675). As to conditions: time 30.0 min.
The target of test [7] is Histone acetyltransferase p300 (Homo sapiens) (UniProt Q09472). To be noted: time 30.0 min.
A further test concerns Jurkat. Description: cells. To be noted: Homo sapiens, 48 h.
For test [8], the target named is Histone acetyltransferase KAT2B (Homo sapiens) (UniProt Q92831). To be noted: time 30.0 min.
For test [9], the target named is T1, Transcription intermediary factor 1-alpha (Homo sapiens) (UniProt O15164).
T1 sequence (whole entry): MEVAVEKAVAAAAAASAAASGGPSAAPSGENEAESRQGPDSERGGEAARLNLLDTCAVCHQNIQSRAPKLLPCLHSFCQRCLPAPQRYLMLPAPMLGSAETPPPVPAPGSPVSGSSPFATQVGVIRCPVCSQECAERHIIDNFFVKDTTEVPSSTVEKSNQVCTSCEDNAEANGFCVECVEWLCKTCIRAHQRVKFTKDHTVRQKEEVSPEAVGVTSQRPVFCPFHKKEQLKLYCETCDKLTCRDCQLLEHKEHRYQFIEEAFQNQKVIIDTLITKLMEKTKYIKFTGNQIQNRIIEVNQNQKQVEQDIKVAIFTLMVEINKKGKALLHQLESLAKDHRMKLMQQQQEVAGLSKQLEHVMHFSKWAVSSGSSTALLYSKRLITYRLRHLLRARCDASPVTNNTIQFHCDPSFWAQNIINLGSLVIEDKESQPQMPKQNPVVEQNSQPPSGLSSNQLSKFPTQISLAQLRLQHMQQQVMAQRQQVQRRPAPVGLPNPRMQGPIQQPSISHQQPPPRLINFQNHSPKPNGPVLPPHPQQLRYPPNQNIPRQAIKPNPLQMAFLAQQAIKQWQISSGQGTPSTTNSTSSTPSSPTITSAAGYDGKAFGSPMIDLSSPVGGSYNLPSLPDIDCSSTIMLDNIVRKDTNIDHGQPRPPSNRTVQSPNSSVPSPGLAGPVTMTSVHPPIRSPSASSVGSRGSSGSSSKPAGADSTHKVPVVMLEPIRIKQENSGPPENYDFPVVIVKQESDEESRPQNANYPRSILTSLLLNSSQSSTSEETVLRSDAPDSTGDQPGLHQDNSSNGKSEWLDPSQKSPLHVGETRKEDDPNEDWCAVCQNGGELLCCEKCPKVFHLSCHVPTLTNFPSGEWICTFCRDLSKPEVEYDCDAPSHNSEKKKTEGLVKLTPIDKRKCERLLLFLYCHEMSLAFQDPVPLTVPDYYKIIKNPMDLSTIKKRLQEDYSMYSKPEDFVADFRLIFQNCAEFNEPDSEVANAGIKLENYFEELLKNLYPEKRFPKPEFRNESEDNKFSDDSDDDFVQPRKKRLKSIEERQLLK
Description: Binding affinity to TRIM24 (unknown origin) using biotinylated histone peptide H4 as substrate at 1 uM incubated for 2 hrs by AlphaScreen assay relative to control.

Test [10] concerns the target Bromodomain adjacent to zinc finger domain protein 2B (Homo sapiens) (UniProt Q9UIF8). To be noted: time 30.0 min.

Chain of CREB-binding protein (Homo sapiens) (Q92793 2-2442 limits assumed): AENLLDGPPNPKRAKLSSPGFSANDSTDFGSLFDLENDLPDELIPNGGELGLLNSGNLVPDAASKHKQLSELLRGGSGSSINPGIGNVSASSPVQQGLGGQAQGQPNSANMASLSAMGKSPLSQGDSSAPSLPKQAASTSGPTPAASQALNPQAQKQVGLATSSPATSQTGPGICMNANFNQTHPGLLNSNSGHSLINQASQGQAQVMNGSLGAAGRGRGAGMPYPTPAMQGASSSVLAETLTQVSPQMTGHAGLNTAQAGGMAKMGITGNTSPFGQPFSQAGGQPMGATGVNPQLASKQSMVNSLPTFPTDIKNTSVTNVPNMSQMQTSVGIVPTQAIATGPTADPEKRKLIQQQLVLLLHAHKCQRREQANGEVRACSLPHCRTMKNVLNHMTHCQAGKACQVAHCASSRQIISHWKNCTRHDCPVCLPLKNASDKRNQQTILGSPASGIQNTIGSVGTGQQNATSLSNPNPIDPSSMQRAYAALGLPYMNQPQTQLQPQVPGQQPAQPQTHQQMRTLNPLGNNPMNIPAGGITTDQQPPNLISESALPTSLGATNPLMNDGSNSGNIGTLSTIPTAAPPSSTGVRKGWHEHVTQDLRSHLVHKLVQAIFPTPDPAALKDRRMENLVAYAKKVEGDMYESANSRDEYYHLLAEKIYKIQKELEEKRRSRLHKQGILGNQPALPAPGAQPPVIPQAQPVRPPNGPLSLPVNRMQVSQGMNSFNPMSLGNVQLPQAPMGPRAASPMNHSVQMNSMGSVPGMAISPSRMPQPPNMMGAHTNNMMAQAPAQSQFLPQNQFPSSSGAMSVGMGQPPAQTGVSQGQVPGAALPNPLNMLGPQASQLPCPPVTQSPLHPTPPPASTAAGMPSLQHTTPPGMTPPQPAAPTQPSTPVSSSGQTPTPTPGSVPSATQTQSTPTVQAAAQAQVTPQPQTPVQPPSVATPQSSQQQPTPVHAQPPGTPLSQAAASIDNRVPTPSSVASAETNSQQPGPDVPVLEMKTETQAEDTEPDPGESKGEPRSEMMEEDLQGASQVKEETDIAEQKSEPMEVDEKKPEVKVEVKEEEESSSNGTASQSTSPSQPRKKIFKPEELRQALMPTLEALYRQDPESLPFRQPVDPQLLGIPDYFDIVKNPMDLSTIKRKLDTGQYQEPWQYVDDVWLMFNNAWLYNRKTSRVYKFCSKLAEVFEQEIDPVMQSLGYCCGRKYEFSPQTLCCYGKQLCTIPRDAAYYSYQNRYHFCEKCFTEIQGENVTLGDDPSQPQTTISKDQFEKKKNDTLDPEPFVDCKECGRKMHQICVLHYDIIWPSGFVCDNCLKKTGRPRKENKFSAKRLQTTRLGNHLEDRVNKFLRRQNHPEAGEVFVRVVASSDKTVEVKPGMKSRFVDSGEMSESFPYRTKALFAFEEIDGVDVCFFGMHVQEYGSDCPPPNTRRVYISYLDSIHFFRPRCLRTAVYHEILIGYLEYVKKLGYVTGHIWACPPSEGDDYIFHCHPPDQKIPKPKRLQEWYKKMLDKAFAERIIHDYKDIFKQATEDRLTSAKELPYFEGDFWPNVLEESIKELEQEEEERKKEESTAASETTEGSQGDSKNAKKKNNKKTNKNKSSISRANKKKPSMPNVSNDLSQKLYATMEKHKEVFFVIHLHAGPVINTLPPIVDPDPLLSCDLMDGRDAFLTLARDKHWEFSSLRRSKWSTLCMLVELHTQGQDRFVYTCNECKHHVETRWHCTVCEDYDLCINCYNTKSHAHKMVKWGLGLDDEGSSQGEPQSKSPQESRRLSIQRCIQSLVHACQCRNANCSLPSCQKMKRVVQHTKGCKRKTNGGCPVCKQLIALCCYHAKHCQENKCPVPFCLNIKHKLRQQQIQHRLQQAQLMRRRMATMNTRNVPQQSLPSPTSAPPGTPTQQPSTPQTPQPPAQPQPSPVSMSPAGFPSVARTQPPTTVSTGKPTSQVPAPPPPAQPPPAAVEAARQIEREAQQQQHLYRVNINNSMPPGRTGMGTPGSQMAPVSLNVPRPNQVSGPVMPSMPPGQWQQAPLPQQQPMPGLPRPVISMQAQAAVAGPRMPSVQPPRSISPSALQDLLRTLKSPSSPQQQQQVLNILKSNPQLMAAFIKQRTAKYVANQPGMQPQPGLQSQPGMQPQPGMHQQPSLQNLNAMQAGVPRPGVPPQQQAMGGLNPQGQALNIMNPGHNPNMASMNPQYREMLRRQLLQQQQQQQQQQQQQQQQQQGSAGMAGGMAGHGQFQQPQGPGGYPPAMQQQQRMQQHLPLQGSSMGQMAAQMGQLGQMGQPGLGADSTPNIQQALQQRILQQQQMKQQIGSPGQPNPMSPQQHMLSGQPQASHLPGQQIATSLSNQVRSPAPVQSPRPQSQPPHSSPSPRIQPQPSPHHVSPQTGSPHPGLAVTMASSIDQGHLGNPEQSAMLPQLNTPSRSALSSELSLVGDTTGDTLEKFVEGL
Chain of Bromodomain adjacent to zinc finger domain protein 2B (Homo sapiens) (Q9UIF8 whole entry, the tested form may be a part): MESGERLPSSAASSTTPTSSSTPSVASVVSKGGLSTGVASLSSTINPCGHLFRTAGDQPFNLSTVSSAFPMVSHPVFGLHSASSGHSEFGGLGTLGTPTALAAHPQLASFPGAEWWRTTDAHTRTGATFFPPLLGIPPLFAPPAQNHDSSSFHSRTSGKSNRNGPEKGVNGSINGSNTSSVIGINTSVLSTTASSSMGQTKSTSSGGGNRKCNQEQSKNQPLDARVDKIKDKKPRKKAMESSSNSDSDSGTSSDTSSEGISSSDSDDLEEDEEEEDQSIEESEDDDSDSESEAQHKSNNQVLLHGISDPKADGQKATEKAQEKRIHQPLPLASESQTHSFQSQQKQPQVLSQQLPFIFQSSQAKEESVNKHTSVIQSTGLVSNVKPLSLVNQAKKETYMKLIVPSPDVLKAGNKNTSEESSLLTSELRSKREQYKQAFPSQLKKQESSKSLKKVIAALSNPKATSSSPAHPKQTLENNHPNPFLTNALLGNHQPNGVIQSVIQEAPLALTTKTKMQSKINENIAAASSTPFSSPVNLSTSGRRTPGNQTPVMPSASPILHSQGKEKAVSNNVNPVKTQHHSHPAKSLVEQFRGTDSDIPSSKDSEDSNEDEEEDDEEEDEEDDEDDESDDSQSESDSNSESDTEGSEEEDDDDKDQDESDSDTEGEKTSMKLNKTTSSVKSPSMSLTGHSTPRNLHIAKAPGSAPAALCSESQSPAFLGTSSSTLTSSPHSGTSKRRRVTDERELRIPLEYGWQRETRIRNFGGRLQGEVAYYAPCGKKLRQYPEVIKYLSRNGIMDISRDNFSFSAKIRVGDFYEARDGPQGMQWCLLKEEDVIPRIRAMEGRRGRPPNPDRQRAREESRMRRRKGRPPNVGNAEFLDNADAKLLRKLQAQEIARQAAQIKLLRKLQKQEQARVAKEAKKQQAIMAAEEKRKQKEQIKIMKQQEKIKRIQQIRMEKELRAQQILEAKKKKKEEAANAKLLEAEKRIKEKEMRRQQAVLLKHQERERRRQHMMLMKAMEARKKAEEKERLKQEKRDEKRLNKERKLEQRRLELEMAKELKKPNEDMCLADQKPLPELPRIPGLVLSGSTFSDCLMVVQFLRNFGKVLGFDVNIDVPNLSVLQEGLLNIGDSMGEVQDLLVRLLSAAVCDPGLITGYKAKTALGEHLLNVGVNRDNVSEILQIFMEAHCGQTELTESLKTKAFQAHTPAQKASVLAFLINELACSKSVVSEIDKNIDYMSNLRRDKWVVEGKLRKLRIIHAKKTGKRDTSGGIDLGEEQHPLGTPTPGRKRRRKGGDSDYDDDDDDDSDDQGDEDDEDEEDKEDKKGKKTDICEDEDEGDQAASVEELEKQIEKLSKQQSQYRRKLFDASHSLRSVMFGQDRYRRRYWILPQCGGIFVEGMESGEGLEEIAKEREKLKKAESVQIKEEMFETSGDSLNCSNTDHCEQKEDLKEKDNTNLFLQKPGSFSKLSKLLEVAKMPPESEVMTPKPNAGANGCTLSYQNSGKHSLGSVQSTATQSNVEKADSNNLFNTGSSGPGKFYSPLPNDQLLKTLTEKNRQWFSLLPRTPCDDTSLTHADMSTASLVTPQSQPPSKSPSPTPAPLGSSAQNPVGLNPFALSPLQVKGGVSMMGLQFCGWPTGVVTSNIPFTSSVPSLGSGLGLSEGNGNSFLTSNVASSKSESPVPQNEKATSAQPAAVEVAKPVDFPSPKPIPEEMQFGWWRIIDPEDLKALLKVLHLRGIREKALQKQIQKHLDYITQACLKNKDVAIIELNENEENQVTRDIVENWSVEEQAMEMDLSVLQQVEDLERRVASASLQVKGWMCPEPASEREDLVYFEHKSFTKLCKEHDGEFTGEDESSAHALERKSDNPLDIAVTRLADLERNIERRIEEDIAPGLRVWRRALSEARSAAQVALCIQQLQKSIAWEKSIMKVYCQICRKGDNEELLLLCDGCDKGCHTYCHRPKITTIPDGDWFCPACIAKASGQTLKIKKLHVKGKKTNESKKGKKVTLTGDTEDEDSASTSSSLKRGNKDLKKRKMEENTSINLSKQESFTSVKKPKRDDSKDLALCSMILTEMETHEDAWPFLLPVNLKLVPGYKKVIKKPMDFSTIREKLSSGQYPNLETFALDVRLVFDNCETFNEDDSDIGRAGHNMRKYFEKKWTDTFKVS
Description for Jurkat: Antiproliferative activity against human Jurkat cells assessed as inhibition of cell growth incubated for 48 hrs by MTT assay
Description for MOLM-13: Antiproliferative activity against human MOLM-13 cells assessed as inhibition of cell growth incubated for 48 hrs by MTT assay

With `COc1cc2c(cc1-c1c(C)noc1C)ncc1nc(C)n([C@H](C)c3ccccc3)c12`, the ΔTm in test [1] is 5 °C; in the test filed under Homo sapiens, 0 °C; in test [5] it was 0 °C; in test [6] it was 0 °C; in [7], 5 °C; in [8], 0 °C. The ΔTm in test [10] was found to be 0 °C. Further, the Activity in test [2] was < 30%; in test [3], 50%; in [4], > 80%; in test [9], < 30%. Besides, the figures for the IC50 in the test on MOLM-13 and in the test on Jurkat were 430 nM and 2080 nM, respectively.
In the case of `COc1cc2c(cc1-c1c(C)n[nH]c1C)ncc1nc(C)n([C@H](C)c3ccccc3)c12`, the ΔTm (in test [1]; in the test listed under Homo sapiens; in test [5]; in test [6]; in test [7]; in test [8]) was 0 °C in each case. In addition, the ΔTm in [10] is 0 °C. Moreover, the Activity in [2] is < 30%; in test [3], < 30%; in test [4], 50%; in test [9] it was < 30%. Besides, the results for the IC50 in the test on MOLM-13 and with Jurkat were 660 nM and 730 nM, respectively.

As usually defined, the ΔTm is the change in melting temperature against a reference sample. The term IC50 denotes the point on the concentration scale where inhibition reaches its midpoint. Low readings indicate higher potency, high ones lower potency.
